From patent US20110059043A1, “CHEMICAL COMPOUNDS” (priority 2009, published 2011)

Key:
[1] = molecular target: T1, Recombinant HCV polymerase (BK strain) (Hepatitis C virus genotype 1b, UniProt P26663); experiment: HCV polymerase enzyme assay (radiometric [33P]-UTP incorporation); assay type: biochemical, HCV 1b
T1 construct: Recombinant HCV polymerase (BK strain) was expressed and purified from E. coli with a 21 amino acid C-terminal deletion; His6; made in house; host or cells: E. coli
Protocol: Compounds were tested for inhibition of HCV polymerase using a radiometric [^33P]-UTP incorporation assay and a biotinylated U13:PolyA primer:template RNA substrate.
Recombinant HCV polymerase (BK strain) was expressed and purified from E. coli with a 21 amino acid C-terminal deletion and a His6-tag. The general assay buffer consisted of 20 mM Tris (pH 7.5), 25 mM KCl, 5 mM MgCl2, 3 mM DTT, 0.5 mg/ml BSA, 0.01% Tween20. The standard reaction, in 96 well plates, contained 10 μl of diluted compound, 50 μl of substrate and 40 μl of enzyme. Compounds, supplied as 10 mM stocks in DMSO, were diluted initially in neat DMSO, and subsequently buffer was added to give a DMSO concentration of 30%; 10 μl of this was added to the assay plate to give a final concentration in the 100 μl assay of 3% DMSO. The biotinylated U13:PolyA RNA substrate was pre-annealed with 40 μM 5′-biotinylated U13 (Dharmacon) and 213 μg/ml PolyA (Amersham Biosciences) in water incubated at 70° C. for 5 minutes before being cooled on ice. Substrate (50 μl) was added in buffer to give a final concentration in the 100 μl assay of 125 nM biotinylated U13:0.63 μg/ml PolyA and 200 nM UTP with 0.4 μCi [^33P]-UTP per well (Perkin Elmer). The reaction was initiated by the addition of 40 μl of enzyme in buffer to give 100 nM final concentration. The reaction was incubated at 25° C. for 100 minutes and then stopped by addition of 100 μl of 100 mM EDTA. The samples were then transferred to 96 well Streptavidin-coated FlashPlates (Perkin Elmer) and incubated at room temperature for ˜1 hour to allow binding to occur. The plates were then washed three times with phosphate-buffered saline containing 0.05% Tween20 in an automated plate washer to remove unincorporated [^33P]-UTP, and then counted in a
Each plate included a set of positive controls (no compound, maximum signal) and negative controls (no enzyme, minimum signal) and in each run at least one reference is compound was included to validate the assay. The IC50, concentration required to inhibit the enzyme activity by 50%, was calculated using an 8-point IC50 curve and fitted using the program XLfit (IDBS).

[2] = test system: HCV replicon cells Huh 9B; experiment: HCV replicon assay (luciferase); assay type: cell-based; details: Hepatitis C virus, reduction of replicon level by 50% vs untreated cell control, 72 h
Protocol: (§1) HCV replicon cells Huh 9B (ReBlikon), containing the firefly luciferase—ubiquitin—neomycin phosphotransferase fusion protein and EMCV-IRES driven HCV polyprotein with cell culture adaptive mutations.
(§2) Cells were cultured at 37° C. in a 5% CO2 environment and split twice a week on seeding at 2×10^6 cells/flask on day 1 and 1×10^6 3 days later. G418 at 0.5 mg/ml was added to the culture medium but not the assay medium. The culture medium consisted of DMEM with […] glucose and glutamax (Gibco 61965-026) supplemented with 1×non-essential amino acids (Invitrogen 11140-035), penicillin (100 IU/ml)/streptomycin (100 μg/ml) (Invitrogen 15140-122), FCS (10%, 50 ml) and […] (Invitrogen 10131-027) & 10% Australian foetal calf serum (Invitrogen 10099-141).
(§3) A flask of cells was trypsinised and a cell count carried out. Cells were diluted to 100,000 cells/ml and 100 μl of this used to seed one opaque white 96-well plate (for the replicon assay) and one flat-bottomed clear plate (for the tox assay) for every five compounds to be tested for IC50. Wells G12 and H12 were left empty in the clear plate as the blank. Plates were then incubated at 37° C. in a 5% CO2 environment for 24 h.
(§4) On the following day compound dilutions are made up in medium at twice their desired final concentration in a clear round bottomed plate. All dilutions have a final DMSO concentration of 1%.
(§5) Once the dilution plate had been made up, controls and compounds were transferred to the assay plates (containing the cells) at 100 μl/well in duplicate wells. Exception: no compound was added to wells A1 and A2 of either plate and 100 μl of 1% DMSO was added to these instead. Plates were then incubated at 37° C. with 5% CO2 for 72 h.
At the end of the incubation time, the cells in the white plate were harvested by washing in PBS (100 μL per well) and gently tapping dry before addition of […] of lysis buffer (25 mM tris-phosphate, 8 mM MgCl2, 1 mM DTT, 1% Triton X-100, 15% glycerol. pH to 7.8 using KH2PO4 prior to triton and glycerol addition. Substrate was prepared: 23.5 mM beetle luciferin (Promega E1603), 26 mM ATP (Sigma O-2060) in […] Tris buffer pH 7.8 aliquoted and stored at −80° C. was thawed and diluted 1:50 in luciferase assay buffer (20 mM Tricine (Sigma T-0377), 1.07 mM magnesium carbonate hydroxide (Sigma M-5671), 0.1 mM EDTA (Sigma E-5134), 2.67 mM MgSO4(BDH 101514Y), 33.3 mM dithiothreitol (Sigma 150460) pH 7.8).
The M injector of the microplate luminometer (Lmax, Molecular Devices) was primed with 5×300 μl injections of the diluted substrate. After 5-60 min incubation in lysis buffer at room temperature, a plate was inserted into the luminometer and 100 μl luciferase assay reagent was added by the injector on the luminometer. The signal was measured using a 1 second delay followed by a 4 second measurement programme. The IC50, the concentration of the drug required for reducing the replicon level by 50% in relation to the untreated cell control value, can be calculated from the plot of the percentage reduction of the luciferase activity vs. drug concentration.

[3] = test system: HCV replicon cells Huh 9B; assay type: cell-based; details: concentration reducing total cell area by 50% relative to DMSO controls; 72 h
Protocol: as §1, §2, §3, §4, §5
The clear plate was stained with 100 μl 0.5% methylene blue in 50% ethanol at room temperature for lh, followed by solvation of the absorbed methylene blue in 100 μl per well of 1% lauroylsarcosine. Absorbance of the plate was measured on a microplate spectrophotometer (Molecular Devices) and the absorbance for each concentration of compound expressed as a proportion of the relative DMSO control. The TD50, the concentration of drug required to reduce the total cell area by 50% relative to the DMSO controls, can be calculated by plotting the absorbance at 620 nm minus background against drug concentration.

T1 sequence (P26663 2420-2989): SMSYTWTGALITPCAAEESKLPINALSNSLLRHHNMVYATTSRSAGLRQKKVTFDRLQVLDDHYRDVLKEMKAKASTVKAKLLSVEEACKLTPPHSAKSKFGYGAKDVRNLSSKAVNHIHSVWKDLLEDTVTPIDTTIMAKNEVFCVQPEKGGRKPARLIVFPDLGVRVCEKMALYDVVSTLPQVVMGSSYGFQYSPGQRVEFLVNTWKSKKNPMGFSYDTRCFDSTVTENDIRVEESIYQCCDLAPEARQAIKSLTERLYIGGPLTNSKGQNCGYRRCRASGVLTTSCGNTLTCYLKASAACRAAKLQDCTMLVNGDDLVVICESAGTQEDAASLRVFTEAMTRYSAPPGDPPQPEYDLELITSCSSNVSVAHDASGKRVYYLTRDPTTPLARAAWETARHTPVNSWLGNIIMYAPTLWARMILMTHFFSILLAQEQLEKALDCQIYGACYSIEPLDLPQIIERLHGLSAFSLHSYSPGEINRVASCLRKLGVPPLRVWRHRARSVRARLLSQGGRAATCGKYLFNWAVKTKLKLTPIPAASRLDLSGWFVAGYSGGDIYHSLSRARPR

## CC(C)OCCOc1ncc(F)cc1C(=O)NC1N=C(c2c(Cl)cc(Cl)cc2Cl)c2ccccc2NC1=O (stereo not drawn) [Example 36, 5-Fluoro-2-(2-isopropoxyethoxy)-N-(2-oxo-5-(2,4,6-trichlorophenyl)-2,3-dihydro-1H-benzo[e][1,4]diazepin-3-yl)nicotinamide]
[1]
  IC50: 244 nM
[2]
  IC50: 308 nM
[3]
  Replicon Assay Value TD50: 13.55 µM

## COCCOc1ccc(Cl)cc1C(=O)NC1N=C(c2c(Cl)cc(Cl)cc2Cl)c2ccccc2NC1=O (stereo not drawn) [Example 14, 5-Chloro-2-(2-methoxyethoxy)-N-(2-oxo-5-(2,4,6-trichlorophenyl)-2,3-dihydro-1H-benzo[e][1,4]diazepin-3-yl)benzamide]
[1]
  IC50: 154 nM
[2]
  IC50: 83.3 nM
[3]
  Replicon Assay Value TD50: 19.834 µM

## COCCOc1ccc(F)cc1C(=O)NC1N=C(c2c(Cl)cc(Cl)cc2OC)c2ccccc2NC1=O (stereo not drawn) [Example 53, N-(5-(2,4-Dichloro-6-methoxyphenyl)-2-oxo-2,3-dihydro-1H-benzo[e][1,4]diazepin-3-yl)-5-fluoro-2-(2-methoxyethoxy)benzamide]
[1]
  IC50: 154 nM
[2]
  IC50: 59.5 nM
[3]
  Replicon Assay Value TD50: 24.827 µM

## COCCOc1ccc(F)cc1C(=O)NC1N=C(c2c(Cl)cc(Cl)cc2Cl)c2ccccc2NC1=O (stereo not drawn) [Example 16, 5-Fluoro-2-(2-methoxyethoxy)-N-(2-oxo-5-(2,4,6-trichlorophenyl)-2,3-dihydro-1H-benzo[e][1,4]diazepin-3-yl)benzamide]
[1]
  IC50: 119 nM
[2]
  IC50: 38.7 nM
[3]
  Replicon Assay Value TD50: 22.094 µM

## COCCOc1ccc(F)cc1C(=O)NC1N=C(c2c(Cl)cc(Cl)cc2CN2CCOCC2)c2ccccc2NC1=O (stereo not drawn) [Example 50, N-(5-(2,4-Dichloro-6-(morpholinomethyl)phenyl)-2-oxo-2,3-dihydro-1H-benzo[e][1,4]diazepin-3-yl)-5-fluoro-2-(2-methoxyethoxy)benzamide]
[1]
  IC50: 666 nM
[2]
  IC50: 208 nM
[3]
  Replicon Assay Value TD50: 11.74 µM

## CCOCCOc1ncc(F)cc1C(=O)NC1N=C(c2c(Cl)cc(Cl)cc2OCC)c2ccccc2NC1=O (stereo not drawn) [Example 58, N-(5-(2,4-Dichloro-6-ethoxyphenyl)-2-oxo-2,3-dihydro-1H-benzo[e][1,4]diazepin-3-yl)-2-(2-ethoxyethoxy)-5-fluoronicotinamide]
[1]
  IC50: 69 nM
[2]
  IC50: 9.9 nM
[3]
  Replicon Assay Value TD50: 11.875 µM

## COCCOc1ccc(Cl)cc1C(=O)N[C@H]1N=C(c2c(Cl)cc(Cl)cc2Cl)c2ccccc2NC1=O [Example 59, (S)-5-Chloro-2-(2-methoxyethoxy)-N-(2-oxo-5-(2,4,6-trichlorophenyl)-2,3-dihydro-1H-benzo[e][1,4]diazepin-3-yl)benzamide]
[1]
  IC50: 87.6 nM
[2]
  IC50: 45.3 nM
[3]
  Replicon Assay Value TD50: >25 µM

## CCS(=O)(=O)NCCCOc1ccc(Cl)cc1C(=O)NC1N=C(c2c(Cl)cc(Cl)cc2Cl)c2ccccc2NC1=O (stereo not drawn) [Example 28, 5-chloro-2-(3-(ethylsulfonamido)propoxy)-N-(2-oxo-5-(2,4,6-trichlorophenyl)-2,3-dihydro-1H-benzo[e][1,4]diazepin-3-yl)benzamide]
[1]
  IC50: 850 nM
[2]
  IC50: 2130 nM
[3]
  Replicon Assay Value TD50: 8.004 µM

## COCCOc1nccc(C)c1C(=O)NC1N=C(c2c(Cl)cc(Cl)cc2Cl)c2ccccc2NC1=O (stereo not drawn) [Example 40, 2-(2-Methoxyethoxy)-4-methyl-N-(2-oxo-5-(2,4,6-trichlorophenyl)-2,3-dihydro-1H-benzo[e][1,4]diazepin-3-yl)nicotinamide]
[1]
  IC50: 2960 nM
[2]
  IC50: 856 nM
[3]
  Replicon Assay Value TD50: 24.518 µM

## CCOc1cc(Cl)cc(Cl)c1C1=N[C@@H](NC(=O)c2cc(F)ccc2OCCOC)C(=O)Nc2ccccc21 [Example 70, (R)—N-(5-(2,4-Dichloro-6-ethoxyphenyl)-2-oxo-2,3-dihydro-1H-benzo[e][1,4]diazepin-3-yl)-5-fluoro-2-(2-methoxyethoxy)benzamide]
[1]
  IC50: 5360 nM
[2]
  IC50: 737 nM
[3]
  Replicon Assay Value TD50: 24.592 µM

## COCC(C)Oc1ccc(Cl)cc1C(=O)NC1N=C(c2c(Cl)cc(Cl)cc2Cl)c2ccccc2NC1=O (stereo not drawn) [Example 4, 5-Chloro-2-(1-methoxypropan-2-yloxy)-N-(2-oxo-5-(2,4,6-trichlorophenyl)-2,3-dihydro-1H-benzo[e][1,4]diazepin-3-yl)benzamide]
[1]
  IC50: 261 nM
[2]
  IC50: 304 nM
[3]
  Replicon Assay Value TD50: >25 µM

## CCOc1cc(Cl)cc(Cl)c1C1=NC(NC(=O)c2cc(F)cnc2OCCOC)C(=O)Nc2ccccc21 (stereo not drawn) [Example 57, N-(5-(2,4-Dichloro-6-ethoxyphenyl)-2-oxo-2,3-dihydro-1H-benzo[e][1,4]diazepin-3-yl)-5-fluoro-2-(2-methoxyethoxy)nicotinamide]
[1]
  IC50: 72 nM
[2]
  IC50: 20.3 nM
[3]
  Replicon Assay Value TD50: 22.698 µM

## CO[C@@H](C)COc1ccc(Cl)cc1C(=O)NC1N=C(c2c(Cl)cc(Cl)cc2Cl)c2ccccc2NC1=O (stereo partly drawn) [Example 2, 5-Chloro-2-((S)-2-methoxypropoxy)-N-(2-oxo-5-(2,4,6-trichlorophenyl)-2,3-dihydro-1H-benzo[e][1,4]diazepin-3-yl)benzamide]
[1]
  IC50: 167 nM
[2]
  IC50: 382 nM
[3]
  Replicon Assay Value TD50: >25 µM

## COCCOc1ccccc1C(=O)NC1N=C(c2c(Cl)cc(Cl)cc2Cl)c2ccccc2NC1=O (stereo not drawn) [Example 15, 2-(2-Methoxyethoxy)-N-(2-oxo-5-(2,4,6-trichlorophenyl)-2,3-dihydro-1H-benzo[e][1,4]diazepin-3-yl)benzamide]
[1]
  IC50: 299 nM
[2]
  IC50: 110 nM
[3]
  Replicon Assay Value TD50: 25.845 µM
